In publication PMC9200688, “The production and biochemical characterization of α-carbonic anhydrase from Lactobacillus rhamnosus GG” (Applied Microbiology and Biotechnology, 2022):
Entries after “also recorded” stand apart in the source; their conditions may differ.

Molecular target: T1, α-carbonic anhydrase of L. rhamnosus (LrhCA) (Lacticaseibacillus rhamnosus, UniProt A0A809N5C7)
T1 sequence (A0A809N5C7 1-215): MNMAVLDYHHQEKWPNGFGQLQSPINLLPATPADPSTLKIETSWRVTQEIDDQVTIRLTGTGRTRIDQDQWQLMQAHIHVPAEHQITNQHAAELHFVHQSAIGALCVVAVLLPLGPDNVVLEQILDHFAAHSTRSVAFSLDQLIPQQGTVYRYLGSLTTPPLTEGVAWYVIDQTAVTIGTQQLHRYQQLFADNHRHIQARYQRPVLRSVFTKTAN
Assay: Sulfonamide inhibition of LrhCA, stopped-flow CO2 hydrase assay
Assay type: biochemical, Lactobacillus rhamnosus GG
Conditions: Ki LrhCA

Molecule | Ki [µM]
Nc1ccc(S(N)(=O)=O)cc1Cl [compound 8] | 8.98
NS(=O)(=O)Cc1noc2ccccc12 [ZNS, reference compound] | 8.95
Nc1cc(Cl)c(S(N)(=O)=O)cc1S(N)(=O)=O [compound 12] | 7.93
O=C1NS(=O)(=O)c2ccccc21 [SAC, saccharin, reference compound] | > 10
NS(=O)(=O)c1ccc(CO)cc1 [compound 16] | 6.01
Nc1cc(C(F)(F)F)c(S(N)(=O)=O)cc1S(N)(=O)=O [compound 11] | 7.56
NS(=O)(=O)c1ccc(S(=O)(=O)Nc2cccc3c(Cl)c[nH]c23)cc1 [IND, indisulam, reference compound] | > 10
Nc1nnc(S(N)(=O)=O)s1 [compound 13, 5-amino-1,3,4-thiadizole-2-sulfonamide] | 0.866
NS(=O)(=O)c1ccc(N2CCCCS2(=O)=O)cc1 [SLT, reference compound] | 9.31
CC1(C)O[C@@H]2[C@@H](CO[C@@]3(COS(N)(=O)=O)OC(C)(C)O[C@@H]23)O1 [TPM, topiramate, reference compound] | 0.508
CC(=O)/N=c1/sc(S(N)(=O)=O)nn1C [MZA, methazolamide, reference compound] | 0.837
CCN[C@H]1CN(CCCOC)S(=O)(=O)c2sc(S(N)(=O)=O)cc21 [BRZ, brinzolamide, reference compound] | 0.433
NS(=O)(=O)c1ccc(C(=O)O)cc1 [compound 18] | 2.71
Nc1ccc(S(=O)(=O)Nc2nnc(S(N)(=O)=O)s2)cc1 | 0.319
Cc1ccc(S(N)(=O)=O)cc1 [compound 4] | 5.6
Nc1nccc(Nc2ccc(S(N)(=O)=O)cc2)n1 [compound 19] | 4.41
Cc1onc(-c2ccccc2)c1-c1ccc(S(N)(=O)=O)cc1 [VLX, valdecoxib, reference compound] | > 10
Nc1ccc(S(N)(=O)=O)cc1Br [compound 9, 3-bromo-4-amino-benzenesulfonamide] | > 10
NS(=O)(=O)c1nnc(NS(=O)(=O)c2ccccc2)s1 [BZA, benzolamide, reference compound] | 0.387

Same assay, conditions: stopped-flow CO2 hydrase assay; mean from three different assays, errors 5–10%; recombinant LrhCA; 15 min preincubation at room temperature; read-out: Ki LrhCA

Molecule | Ki [µM]
NS(=O)(=O)c1ccc(CCNS(=O)(=O)c2ccc([N+](=O)[O-])cc2CO)cc1 | 0.378
NS(=O)(=O)c1cc2c(cc1Cl)NCNS2(=O)=O [HCT, hydrochlorothiazide, reference compound] | > 10
4-(4-sulfanilyl-aminomethyl)-benzenesulfonamide [compound 23] | 0.487
Nc1ccc(S(=O)(=O)Nc2ccc(S(N)(=O)=O)cc2)cc1 [compound 22] | 0.559
NCc1ccc(S(N)(=O)=O)cc1 [compound 5, 4-aminomethyl-benzenesulfonamides] | > 10
NS(=O)(=O)c1cc(Cl)cc(Cl)c1O [compound 10] | 5.03
NS(=O)(=O)c1cccc(S(N)(=O)=O)c1 [compound 3] | 3.02
4-(2-hydroxymethyl-4-nitrophenyl-sulfonamido)ethylbenzenesulfonamide [compound 24] | 0.403

Molecular target: hCA I (human carbonic anhydrase isozyme I)
Assay: not given
Conditions: human recombinant isozyme; stopped-flow CO2 hydrase assay; data published previously, ref Supuran [2008]; cited from earlier work

Molecule | Ki [µM]
O=C1NS(=O)(=O)c2ccccc21 [SAC, saccharin, reference compound] | 18.5
NS(=O)(=O)c1cccc(S(N)(=O)=O)c1 [compound 3] | 0.079
Cc1ccc(S(N)(=O)=O)cc1 [compound 4] | 78.5

Tested on: L. rhamnosus GG
Assay: In vitro inhibition assay with acetazolamide: growth of L. rhamnosus GG culture (OD595)
Conditions: AAZ 1 nM to 10 mM in MRS, 37 °C, anaerobic and aerobic, 96 h, OD595 at 0, 24, 48, 72, 96 h

Molecule | Effect of acetazolamide on cell growth of L. rhamnosus GG (OD595)
CC(=O)Nc1nnc(S(N)(=O)=O)s1 [AAZ, acetazolamide] | very little or no inhibitory effect on cell growth; also recorded: no significant effect on the growth

Same assay, conditions: AAZ 1 nM to 10 mM in MRS, 37 °C, anaerobic and aerobic, 96 h, OD595 at 0, 24, 48, 72, 96 h; listed as Acetazolamide

Molecule | Effect of acetazolamide on cell growth of L. rhamnosus GG (OD595)
CC(=O)Nc1nnc(S(N)(=O)=O)s1 [AAZ, acetazolamide] | marginal inhibitory effect on cell growth

Same assay, conditions: AAZ 1 nM to 10 mM in MRS, 37 °C, anaerobic and aerobic, 96 h, OD595 at 0, 24, 48, 72, 96 h; listed as acetazolamide

Molecule | Effect of acetazolamide on cell growth of L. rhamnosus GG (OD595)
CC(=O)Nc1nnc(S(N)(=O)=O)s1 [AAZ, acetazolamide] | no significant effect on cell growth
